Data taken from US11498853B2, “Water with switchable ionic strength” (QUEEN'S UNIVERSITY AT KINGSTON, priority 2010, dated 2022).
Where “and” joins values, the source holds several entries; their conditions need not be identical. Equal entries are not always repeated. Where two headings read alike, the source gives them in different places. Values belong to the compound of their own block, whether it stands above or below them.

Legend:
[1] = Solvent switching of diamidine/water system, 1H NMR; format: physicochemical; details: 0.80 molal, 30 minutes CO2
Description: The diamidine was investigated as additive for switchable ionic strength solutions. […] The volumes of each phase were recorded.

[2] = Salting out THF from water using secondary amine additives, 1H NMR; format: physicochemical; details: 1.60 molal, 1:1 w/w THF:water, 30 minutes CO2
Description: N-tert-Butylethanolamine and N-ter-butymethylamine were investigated as additives for switchable ionic strength solutions. […] The volumes of each phase were recorded. […] The recombining of the phases when N-tert-butymethylamine was used as an additive was not successful at 30 min but was achieved by 2 h at a higher Ar flow rate of 15 mL/min. THF was added afterwards to replace the amount of THF being evaporated during the procedure.

[3] = Separation of THF from aqueous phase and retention of additive on switching with CO2, by 1H NMR; format: physicochemical
Description: (§1) The volumes of each phase were recorded.
The graduated cylinders were capped with rubber septa. […] A second narrow gauge steel tube was provided to vent the gaseous phase.
as §1

[4] = Reversible protonation of amine additives in H2O monitored by conductivity; format: physicochemical
Description: 1:1 w/w H2O and THEED was used because a 1:1 v/v solution was too viscous to pour accurately. A trigger gas chosen from CO2, air or nitrogen was bubbled at identical flow rates through the solution via a narrow gauge steel tube and the conductivity of the solution was measured periodically using a Jenway 470 Conductivity Meter (Bibby Scientific, NJ, US) having a cell constant of 1.02 cm^−1.
The deprotonation reactions of the ionic solutions of additives in water were monitored in a similar manner, and the conductivity plot is shown in FIG. 8.
1:1 v/v solutions of the various additives and distilled, deionised water were prepared in six dram glass vials and transferred to a fritted glass apparatus which acted as a reaction vessel. The fritted glass apparatus consisted of a long narrow glass tube leading to a fine glass frit having a diameter of approximately 4 cm. The other end of the glass frit was connected to a cylindrical glass tube which held the solution of the additive during contacting with the trigger gas. This apparatus allowed a multiple source of trigger gas bubbles to contact the solution, compared to the single point source of Example 5.
A trigger gas chosen from CO2, air or nitrogen was bubbled through the solution via the glass frit at a flow rate of 110 ml min^−1 as measured by a J&W Scientific ADM 2000 Intelligent Flowmeter (CA, USA). For each conductivity measurement, the solution was transferred back to a six dram vial, cooled to 298 K and measured in triplicate. Conductivity measurements were performed using a Jenway 470 Conductivity Meter (Bibby Scientific, NJ, US) having a cell constant of 1.02 cm^−1.

[5] = Miscibility of diamines and triamines with water in presence and absence of CO2; format: physicochemical; details: 5:1 w/w water and liquid additive; for Miscibility with water, After addition of CO2: CO2 90 min; for Miscibility with water, Before addition of CO2: room temperature
Description: A 5:1 w/w solution of water and the liquid additive (total volume 5 m) were mixed together in a glass vial at room temperature. Whether the mixture formed one or two liquid phases was visually observed. Then CO2 was bubbled through the mixture via a single narrow gauge steel needle at a flow rate of ˜5 ml min^−1 for 90 min. Whether the mixture formed one or two phases was visually observed.

[6] = Expulsion of THF from water and removal of additive from the aqueous phase; format: physicochemical; details: for additive removed from the aqueous phase after N2 treatment: separated aqueous phase, N2 90 minutes, 60° C.
Description: 1.50 g H2O, 1.50 g THF, and 0.30 g N,N,N′N′-tetraethyl-1,4-diaminobutane (TEDAB) were mixed together in a graduated cylinder to generate a single phase solution. […] A small stir bar was added to the solution and the cylinder was capped with a rubber septa. The following procedure was run in triplicate with a new sample (of the same contents shown above) each time.
A long, narrow gauge needle was inserted through the septa into the solution. […] CO2 was bubbled through the solution a flow rate of about 5 ml/min for 45 minutes with stirring until a 2nd phase creams out on top of the aqueous phase. The CO2 bubbling was stopped and the needles withdrawn. The cylinder was immersed in a hot water bath for several seconds to facilitate the separation of the liquid phases. Both phases were clear and yellow in colour.
The organic phase was decanted off giving a mass of 1.253 g (density=0.84 g/m).
A 39.1 mg sample of the organic phase was placed in an NMR tube with deuterated acetonitrile and 50.2 mg ethyl acetate to act as an internal standard. A 66.2 mg sample of the aqueous phase was placed in a 2nd NMR tube with deuterated acetonitrile with 22.3 mg ethyl acetate to act as an internal standard. A ^1H NMR spectra was acquired and knowing the corresponding amount of ethyl acetate in each sample the resulting amounts of THF in the aqueous sample and additive in the organic sample can be calculated. Knowing the mass, volume, and density of each layer, the total amount of THF or additive in a respective layer can be calculated.
1.943 g (1.90 ml) of the aqueous phase was returned to the same graduated cylinder. The needles and septa were put back into the cylinder and the cylinder was immersed in a 60° C., water bath. N2 was introduced in the same fashion as CO2 preformed previously and the N2 was bubbled through the solution for 90 minutes where a deep yellow organic phase creams out of the aqueous phase.
A 37.9 mg sample of the aqueous phase was taken up in an NMR tube with deuterated acetonitrile and 41.5 mg ethyl acetate to act as an internal standard.

[7] = Zeta potential of suspended clay fines in switchable water; format: physicochemical; details: Kaolinite
Description: (§2) Clay fines were weighed and placed into individual vials (0.025 g, Ward's Natural Science Establishment). Kaolinite and montmorilonite were used as received, but as illite day was ground into a powder using a motar and pestle. Solutions containing additives were made with deionized water (18.2 MΩ/cm, Millipore) and 10 ml was added to the clay fines. A suspension was created using a vortex mixer and subsequently dispensed into a folded capillary cell. The zeta potential was measured using a Malvern Zetasizer instrument. The errors reported on the zeta potential values were the standard deviations of the zeta potential peaks measured.
(§3) Unless specified, all carbon dioxide treatments were conducted with the aqueous solutions prior to addition to day fines. For applicable measurements, ultra pure carbon dioxide (Supercritical CO2 Chromatographic Grade, Paxair) was bubbled through the solutions using a syringe.
Another experiment was performed in which CO2 was bubbled through a 1 mM aqueous solution of TMDAB that already contained clay fines (a method referred to as “switching in situ”).

[8] = as above; format: physicochemical
Description: as §2, §3

[9] = Degree of protonation/deprotonation of amine additives in D2O by 1H NMR; details: 0.1 M in D2O; for degree of protonation by CO2: room temperature
Description: In order to establish the chemical shifts of the protonated bases, molar equivalents of several strong acids, including HCl and HNO3, were added to separate solutions of the amines dissolved in D2O. ^1H NMR spectra were acquired on a Bruker AV-400 NMR spectrometer at 400.3 MHz for three replicate solutions of each amine. An average value of each chemical shift for each protonated base was calculated along with standard deviations. […] The ^1H NMR chemical shifts of the unprotonated amines were also measured.
The amine was dissolved in D2O in an NMR tube and sealed with a rubber septa. The spectrum was then acquired. Subsequently, two narrow gauge steel needles were inserted and gas was gently bubbled through one of them into the solution at approximately 4-5 bubbles per second. The second needle served as a vent for the gaseous phase.
Firstly CO2 was bubbled through the solution for the required length of time and then the spectrum was re-acquired. This process was repeated. The % protonation of the amine was determined from the observed chemical shifts by determining the amount of movement of the peaks from the normal position for the unprotonated amine towards the position expected for the fully protonated amine.
Nitrogen gas was flushed through the solution at 75° C.
In order to establish the chemical shifts of the protonated bases, molar equivalents of several strong acids, including HCl and HNO3, were added to separate solutions of the tetraamine dissolved in D2O. ^1H NMR spectra were acquired on a Bruker AV-400 NMR spectrometer at 400.3 MHz for three replicate solutions of the amine. An average value of each chemical shift for each protonated base was calculated along with standard deviations. […] The ^1H NMR chemical shifts of the unprotonated amine were also measured. […]

[10] = 0.80 molal
Description: The methylated spermine was investigated as additive for switchable ionic strength solutions. To measure the extent of THF being forced out of an aqueous phase by an increase in ionic strength, and the amounts of amine, which remained in the aqueous phase, 1:1 w/w solutions of THF and water were prepared in graduated cylinders. The appropriate mass of amine additive to result in a 0.80 molal solution was added and the cylinders were capped with rubber septa. […] The volumes of each phase were recorded. Aliquots of the non-aqueous and aqueous layers were taken and dissolved in d3-acetonitrile in NMR tubes. A known amount of ethyl acetate was added to each NMR tube as an internal standard. ^1H NMR spectra were acquired and through integration of the ethyl acetate standard, a concentration of THF or additive was calculated and scaled up to reflect the total volume of the aqueous or non-aqueous phase giving a percentage of the compound being forced out or retained. Then argon was bubbled through the solution while heating to 50° C. until the two phases recombined (15 to 60 min). The whole switching process (30 min CO2, sample take, then another 30 min of Ar) was repeated.

[11] = 0.80 molal additive, 1:1 w/w THF:H2O, 30 min CO2, in aqueous phase
[12] = 1:1 v/v additive:water, 25° C., glass frit
[13] = 1:1 v/v, N2 at 80° C., glass frit

SMILES: C/C(=N\CCCC/N=C(\C)N(C)C)N(C)C [DIAC, N,N-(butane-1,4-diyl)bis(N,N-dimethylacetimidamide)]
additive retained in the aqueous phase [1]: 99.5%

SMILES: CN(C)CCN(C)CCN(C)CCN(C)C [HMTETA, 1,1,4,7,10,10-hexamethyl triethylenetetramine]
% Additive Retained [3, 11]: 99.3 ± 0.4% | % Additive Retained ([3]; THF:H2O:Additive 3:3:1 w/w/w): 95.6 ± 1.5% | % Additive Retained ([3]; THF:H2O:Additive 5:5:1 w/w/w): 98.4 ± 1.2% | % Additive Retained ([3]; THF:H2O:Additive 10:10:1 w/w/w): 98.0 ± 1.0% | % Additive Retained ([3]; THF:H2O:Additive 15:15:1 w/w/w): 98.2 ± 0.3% | conductivity on CO2 bubbling [4, 12]: lower conductivities than TMDAB | conductivity of ionic form after 20 minutes of N2 [4, 13]: close to zero

SMILES: CN(C)CC1CC(CN(C)C)CC(CN(C)C)C1 (stereo not drawn) [1,3,5-cycloC6H9(CH2NMe2)3, 1,1′,1″-(cyclohexane-1,3,5-triyl)tris(N,N,-dimethylmethanamine)]
Miscibility with water, After addition of CO2 [5]: miscible | Miscibility with water, Before addition of CO2 [5]: immiscible

SMILES: CCCN(CCC)CCCCN(CCC)CCC [Pr2NCH2CH2CH2CH2NPr2, N,N,N′,N′-tetrapropyl-1,4-diaminobutane]
Miscibility with water, After addition of CO2 [5]: immiscible | Miscibility with water, Before addition of CO2 [5]: immiscible

SMILES: CC(O)CN(CCCN(C)C)CCCN(C)C (stereo not drawn) [DMAPAP]
% Additive Retained [3, 11]: 98.8 ± 0.4% | % Additive Retained ([3]; THF:H2O:Additive 3:3:1 w/w/w): 87.1 ± 7.3% | % Additive Retained ([3]; THF:H2O:Additive 5:5:1 w/w/w): 98.4 ± 0.4% | % Additive Retained ([3]; THF:H2O:Additive 10:10:1 w/w/w): 96.0 ± 0.8% | % Additive Retained ([3]; THF:H2O:Additive 15:15:1 w/w/w): 94.4 ± 1.1% | conductivity on CO2 bubbling [4, 12]: lower conductivities than TMDAB | Zeta Potential ([7]; 0.8 molal additive): −24.3 ± 2.29 mV | Zeta Potential ([7]; 0.8 molal additive + 1 h CO2): −3.99 mV | Zeta Potential ([8]; Illite, 0.8 molal additive): −19.1 ± 3.92 mV | Zeta Potential ([8]; Illite, 0.8 molal additive + 1 h CO2): −1.87 mV | Zeta Potential ([8]; Montmorillonite, 0.8 molal additive): −16.8 ± 4.64 mV | Zeta Potential ([8]; Montmorillonite, 0.8 molal additive + 1 h CO2): −2.99 mV

SMILES: OCCN(CCO)CCN(CCO)CCO [THEED, N, N, N′, N′-tetrakis(2-hydroxyethyl) ethylenediamine]
degree of deprotonation ([9]; N2 bubbling at 75° C., 2 hours (120 minutes)): 98% | degree of protonation by CO2 ([9]; by 10 minutes): 49%

SMILES: CN(C)CCCN(C)CCCCN(C)CCCN(C)C [MeSpe, N^1,N^1′-(butane-1,4-diyl)bis(N^1,N^2,N^3-trimethylpropane-1,3-diamine)]
Additive retained in THF ([10]; 30 min CO2, run 1): 99.85% | Additive retained in THF ([10]; 30 min CO2, run 2): 99.79% | degree of protonation by CO2 [9]: 93%

SMILES: CCCN(CC)CCCCN(CC)CCC [PrEtNCH2CH2CH2CH2NPrEt, N,N′-diethyl-N,N′-dipropyl-1,4-diaminobutane]
Miscibility with water, After addition of CO2 [5]: miscible | Miscibility with water, Before addition of CO2 [5]: immiscible | additive removed from the aqueous phase after N2 treatment [6]: 81%

Further lines, results first:

Additive retained in H2O [2]: 99.84 ± 0.04%
SMILES: CC(C)(C)NCCO [N-tert-butylethanolamine]

% Additive Retained [3, 11]: 99.2 ± 0.4% | % Additive Retained ([3]; THF:H2O:Additive 3:3:1 w/w/w): 87.1 ± 2.1% | % Additive Retained ([3]; THF:H2O:Additive 5:5:1 w/w/w): 99.8% and 99.6 ± 0.1% | % Additive Retained ([3]; THF:H2O:Additive 10:10:1 w/w/w): 99.4 ± 0.1% | % Additive Retained ([3]; THF:H2O:Additive 15:15:1 w/w/w): 98.4 ± 0.4% | reduction of conductivity ([4]; 1:1 v/v H2O:amine, 90 minutes, 80° C., N2 through a glass frit): approximately 95% | rate of conductivity increase on CO2 bubbling [4, 12]: highest rate of conductivity increase | rate of conductivity decrease on N2 flushing [4, 13]: highest
SMILES: CN(C)CCCCN(C)C [TMDAB, N, N, N′, N′-tetramethyl-1,4-diaminobutane]

Miscibility with water, After addition of CO2 [5]: miscible | Miscibility with water, Before addition of CO2 [5]: immiscible | additive residing in the aqueous phase after CO2 treatment ([6]; 1.50 g H2O, 1.50 g THF, 0.30 g additive, CO2 45 minutes): 91.1±3.7% | additive removed from the aqueous phase after N2 treatment [6]: 49.3±6.3%
SMILES: CCN(CC)CCCCN(CC)CC [TEDAB, N, N, N′, N′-tetraethyl-1,4-diaminobutane]

Additive retained in H2O [2]: 99.75 ± 0.04%
SMILES: CNC(C)(C)C [N-tert-butymethylamine]

Miscibility with water, After addition of CO2 [5]: miscible | Miscibility with water, Before addition of CO2 [5]: miscible
SMILES: CN(C)Cc1cc(CN(C)C)cc(CN(C)C)c1 [1,3,5-C6H3(CH2NMe2)3, N,N,N′,N′,N″,N″-1,3,5-benzenetrimethanamine]
